Experimental data from patent US10851083B2, “Benzoimidazoles as prolyl hydroxylase inhibitors” (Janssen Pharmaceutica NV, priority 2008, dated 2020).

Assays:
[1] = biological target: human PHD2181-417 (Homo sapiens (Human), UniProt Q9GZT9); assay: PHD2 enzyme activity assay ([14C]-succinic acid production); format: biochemical; conditions: PHD2181-417 polypeptide, HIF-1α peptide 10 μM, [5-14C]-2-oxoglutaric acid; 30 min pre-incubation; tested 10 μM to 3 nM;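 note: reaction ran 10 min with compound in Tris pH 7.5 buffer with catalase, DTT and ascorbate, labelled succinate freed of leftover 2-oxoglutarate by DNP precipitation, then beta counted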
[2] = test system: Hep-3B cells; assay: Cellular assay: EPO secretion in Hep-3B cells; format: cell-based, human; parameters: EPO secretion, % of control compound: dose or concentration left out as unconfirmed; conditions: 24 h, EPO secretion as percentage of control compound 7-[(4-Chloro-phenyl)-(5-methyl-isoxazol-3-ylamino)-methyl]-quinolin-8-ol; for EPO secretion, % of control compound: Homo sapiens, Hep3B, read-out: Cellular % EPO Stimulation; for Cellular % EPO Stimulation: compound at 100 μM (10 μM or 100 μM)

Chain of human PHD2181-417 (Q9GZT9 181-417): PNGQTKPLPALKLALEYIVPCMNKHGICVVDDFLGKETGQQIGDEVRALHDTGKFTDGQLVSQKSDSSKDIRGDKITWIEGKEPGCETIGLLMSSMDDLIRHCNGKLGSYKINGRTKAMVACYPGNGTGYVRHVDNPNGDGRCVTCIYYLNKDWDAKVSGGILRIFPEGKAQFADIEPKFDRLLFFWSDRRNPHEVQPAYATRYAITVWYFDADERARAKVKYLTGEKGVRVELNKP

Row | Structure (SMILES) | Enzyme pIC50 [1] | Cellular % EPO Stimulation [2] [%] | other results
1 | CCCS(=O)(=O)c1cc2[nH]c(-n3cc(C(=O)O)cn3)nc2cc1C(F)(F)F [Example 104, 1-[6-(Propane-1-sulfonyl)-5-trifluoromethyl-1H-benzoimidazol-2-yl]-1H-pyrazole-4-carboxylic Acid] | 7.5 | – | –
2 | O=C(O)c1cnn(-c2nc3cc(C(F)(F)F)ccc3[nH]2)c1 [Example 3, 1-(5-Trifluoromethyl-1H-benzoimidazol-2-yl)-1H-pyrazole-4-carboxylic Acid] | – | – | EPO secretion, % of control compound [2]: 110%
3 | Cc1nn(-c2nc3cc(Br)ccc3[nH]2)c(C)c1C(=O)O [Example 21, 1-(5-Bromo-1H-benzoimidazol-2-yl)-3,5-dimethyl-1H-pyrazole-4-carboxylic Acid] | – | 7.24 | –
4 | CCCS(=O)(=O)c1cc2nc(-n3cc(C(=O)O)cn3)[nH]c2cc1F [Example 157, 1-(6-Fluoro-5-propylsulfonyl-1H-benzoimidazol-2-yl)-1H-pyrazole-4-carboxylic Acid] | 7.4 | – | –
5 | O=C(O)c1cnn(-c2nc3cc(C(F)(F)F)c(F)cc3[nH]2)c1 [Example 129, 1-(6-Fluoro-5-trifluoromethyl-1H-benzoimidazol-2-yl)-1H-pyrazole-4-carboxylic Acid] | – | – | EPO secretion, % of control compound [2]: 70.8%
6 | O=C(O)c1cnn(-c2nc3cc(-c4cccc(OCc5cccc(Cl)c5)c4)ccc3[nH]2)c1 [Example 12, 1-{5-[3-(3-Chloro-benzyloxy)-phenyl]-1H-benzoimidazol-2-yl}-1H-pyrazole-4-carboxylic Acid] | – | 8.76 | –
7 | COc1ccc2[nH]c(-n3cc(C(=O)O)cn3)nc2c1 [Example 7, 1-(5-Methoxy-1H-benzoimidazol-2-yl)-1H-pyrazole-4-carboxylic Acid] | – | 16.8 | –
8 | O=C(O)c1cnn(-c2nc3cc(OC(F)(F)F)cc(Br)c3[nH]2)c1 [Example 29, 1-(7-Bromo-5-trifluoromethoxy-1H-benzoimidazol-2-yl)-1H-pyrazole-4-carboxylic Acid] | – | – | EPO secretion, % of control compound [2]: 57.5%
9 | O=C(O)c1cnn(-c2nc3cc(-c4cccc(O)c4)ccc3[nH]2)c1 [Example 24, 1-[5-(3-Hydroxy-phenyl)-1H-benzoimidazol-2-yl]-1H-pyrazole-4-carboxylic Acid] | – | 11.15 | –
10 | O=C(O)c1cnn(-c2nc3ccccc3[nH]2)c1 [Example 1, 1-(1H-Benzoimidazol-2-yl)-1H-pyrazole-4-carboxylic Acid] | – | 7.1 | –
11 | CCCSc1cc2[nH]c(-n3cc(C(=O)O)cn3)nc2cc1OC(F)(F)F [Example 81, 1-(6-Propylsulfanyl-5-trifluoromethoxy-1H-benzoimidazol-2-yl)-1H-pyrazole-4-carboxylic Acid] | 7 | – | –
12 | O=C(O)c1cnn(-c2nc3cc(-c4cccc(C(F)(F)F)c4)ccc3[nH]2)c1 [Example 17, 1-[5-(3-Trifluoromethyl-phenyl)-1H-benzoimidazol-2-yl]-1H-pyrazole-4-carboxylic Acid] | – | 5.8 | –
13 | CCCSc1cc2nc(-n3cc(C(=O)O)cn3)[nH]c2cc1F [Example 152, 1-(6-Fluoro-5-propylsulfanyl-1H-benzoimidazol-2-yl)-1H-pyrazole-4-carboxylic Acid] | – | – | EPO secretion, % of control compound [2]: 91.4%
14 | O=C(O)c1cnn(-c2nc3cc(OC(F)(F)F)ccc3[nH]2)c1 [Example 11, 1-(5-Trifluoromethoxy-1H-benzoimidazol-2-yl)-1H-pyrazole-4-carboxylic Acid] | – | 123.68 | –
15 | O=C(O)c1cnn(-c2nc3cc(-c4cccc(OCc5ccccc5)c4)ccc3[nH]2)c1 [Example 15, 1-[5-(3-Benzyloxy-phenyl)-1H-benzoimidazol-2-yl]-1H-pyrazole-4-carboxylic Acid] | – | 10.77 | –
16 | O=C(O)c1cnn(-c2nc3cc(S(=O)(=O)Cc4ccc(C(F)(F)F)cc4C(F)(F)F)c(Cl)cc3[nH]2)c1 [Example 180, 1-[5-(2,4-Bis-trifluoromethyl-phenylmethanesulfonyl)-6-chloro-1H-benzoimidazol-2-yl]-1H-pyrazole-4-carboxylic Acid] | 7.6 | – | –
17 | O=C(O)c1cnn(-c2nc3cc(-c4ccc(Cl)c(Cl)c4)ccc3[nH]2)c1 [Example 18, 1-[5-(3,4-Dichloro-phenyl)-1H-benzoimidazol-2-yl]-1H-pyrazole-4-carboxylic Acid] | – | 15.3 | –
18 | N#Cc1ccccc1-c1ccc(CS(=O)(=O)c2cc3nc(-n4cc(C(=O)O)cn4)[nH]c3cc2Cl)cc1 [Example 181, 1-[6-Chloro-5-(2′-cyano-biphenyl-4-ylmethanesulfonyl)-1H-benzoimidazol-2-yl]-1H-pyrazole-4-carboxylic Acid] | 7.7 | – | –
19 | CC(C)S(=O)(=O)c1cc2[nH]c(-n3cc(C(=O)O)cn3)nc2cc1OC(F)(F)F [Example 105, 1-[6-(Propane-2-sulfonyl)-5-trifluoromethoxy-1H-benzoimidazol-2-yl]-1H-pyrazole-4-carboxylic Acid] | 7.4 | – | –

Row | Structure (SMILES) | Enzyme pIC50 [1] | Cellular % EPO Stimulation [2] [%] | other results
20 | O=C(O)c1cnn(-c2nc3cc(C(F)(F)F)c(Cl)cc3[nH]2)c1 [Example 30, 1-(6-Chloro-5-trifluoromethyl-1H-benzoimidazol-2-yl)-1H-pyrazole-4-carboxylic Acid] | – | – | EPO secretion, % of control compound [2]: 129%
21 | O=C(O)c1cnn(-c2nc3cc(SCc4ccc(C(F)(F)F)cc4)c(Cl)cc3[nH]2)c1 [Example 170, 1-[6-Chloro-5-(4-trifluoromethyl-benzylsulfanyl)-1H-benzoimidazol-2-yl]-1H-pyrazole-4-carboxylic Acid] | 6.7 | – | –
22 | O=C(O)c1cnn(-c2nc3cc(Cl)ccc3[nH]2)c1 [Example 25, 1-(5-Chloro-1H-benzoimidazol-2-yl)-1H-pyrazole-4-carboxylic Acid] | – | 71.87 | –
23 | Cc1ccc2[nH]c(-n3cc(C(=O)O)cn3)nc2c1C [Example 10, 1-(4,5-Dimethyl-1H-benzoimidazol-2-yl)-1H-pyrazole-4-carboxylic Acid] | – | 10.7 | –
24 | O=C(O)c1cnn(-c2nc3cc(-c4ccc(OCc5ccccc5)cc4)ccc3[nH]2)c1 [Example 16, 1-[5-(4-Benzyloxy-phenyl)-1H-benzoimidazol-2-yl]-1H-pyrazole-4-carboxylic Acid] | – | 6.97 | –
25 | O=C(O)c1cnn(-c2nc3cc(-c4ccc(O)cc4)ccc3[nH]2)c1 [Example 23, 1-[5-(4-Hydroxy-phenyl)-1H-benzoimidazol-2-yl]-1H-pyrazole-4-carboxylic Acid] | – | 6.49 | –
26 | Cc1cc2nc(-n3cc(C(=O)O)cn3)[nH]c2cc1C [Example 5, 1-(5,6-Dimethyl-1H-benzoimidazol-2-yl)-1H-pyrazole-4-carboxylic Acid] | – | 2.1 | –
27 | Cc1ccc(CS(=O)(=O)c2cc3nc(-n4cc(C(=O)O)cn4)[nH]c3cc2Cl)cc1 [Example 178, 1-(6-Chloro-5-p-tolylmethanesulfonyl-1H-benzoimidazol-2-yl)-1H-pyrazole-4-carboxylic Acid] | 7.7 | – | –
28 | O=C(O)c1cnn(-c2nc3cc(-c4cccc(OCc5ccc(Cl)cc5)c4)ccc3[nH]2)c1 [Example 14, 1-{5-[3-(4-Chloro-benzyloxy)-phenyl]-1H-benzoimidazol-2-yl}-1H-pyrazole-4-carboxylic Acid] | – | – | EPO secretion, % of control compound [2]: 20.1%
29 | O=C(O)c1cnn(-c2nc3cc(-c4cccc(OCc5ccccc5Cl)c4)ccc3[nH]2)c1 [Example 13, 1-{5-[3-(2-Chloro-benzyloxy)-phenyl]-1H-benzoimidazol-2-yl}-1H-pyrazole-4-carboxylic Acid] | – | 18 | –
30 | O=C(O)c1cnn(-c2nc3cc(SCc4ccc(C(F)(F)F)cc4C(F)(F)F)c(Cl)cc3[nH]2)c1 [Example 171, 1-[5-(2,4-Bis-trifluoromethyl-benzylsulfanyl)-6-chloro-1H-benzoimidazol-2-yl]-1H-pyrazole-4-carboxylic Acid] | 6.7 | – | –
31 | CC(C)Sc1cc2nc(-n3cc(C(=O)O)cn3)[nH]c2cc1F [Example 153, 1-(6-Fluoro-5-isopropylsulfanyl-1H-benzoimidazol-2-yl)-1H-pyrazole-4-carboxylic Acid] | 6.9 | – | –
32 | CC(C)S(=O)(=O)c1cc2nc(-n3cc(C(=O)O)cn3)[nH]c2cc1F [Example 158, 1-(6-Fluoro-5-isopropylsulfonyl-1H-benzoimidazol-2-yl)-1H-pyrazole-4-carboxylic Acid] | 7.3 | – | –
33 | CC(C)Sc1cc2[nH]c(-n3cc(C(=O)O)cn3)nc2cc1C(F)(F)F [Example 73, 1-(6-Isopropylsulfanyl-5-trifluoromethyl-1H-benzoimidazol-2-yl)-1H-pyrazole-4-carboxylic Acid] | 7.2 | – | –
34 | COc1cc2nc(-n3cc(C(=O)O)cn3)[nH]c2cc1OC [Example 9, 1-(5,6-Dimethoxy-1H-benzoimidazol-2-yl)-1H-pyrazole-4-carboxylic Acid] | – | 4.26 | –
35 | O=C(O)c1cn(-c2nc3cc(Br)ccc3[nH]2)nc1C(F)(F)F [Example 19, 1-(5-Bromo-1H-benzoimidazol-2-yl)-3-trifluoromethyl-1H-pyrazole-4-carboxylic Acid] | – | 20.52 | –
36 | O=C(O)c1cnn(-c2nc3c(Cl)cc(C(F)(F)F)cc3[nH]2)c1 [Example 8, 1-(4-Chloro-6-trifluoromethyl-1H-benzoimidazol-2-yl)-1H-pyrazole-4-carboxylic Acid] | – | 20.97 | –
37 | Cc1c(Br)cc2nc(-n3cc(C(=O)O)cn3)[nH]c2c1C [Example 26, 1-(5-Bromo-6,7-dimethyl-1H-benzoimidazol-2-yl)-1H-pyrazole-4-carboxylic Acid] | – | 11.9 | –
38 | O=C(O)c1cnn(-c2nc3cc(Br)ccc3[nH]2)c1 [Example 6, 1-(5-Bromo-1H-benzoimidazol-2-yl)-1H-pyrazole-4-carboxylic Acid] | – | 9.91 | –
